Results as given in patent publication US20160367457A1, “CAPRYLOYL ALANINE ETHYLESTER AS A PENETRATION ENHANCER” (BASF SE, priority 2014, published 2016).
Like-named read-outs stand apart in the source and are kept apart here.

Experiments:
[1] = Penetration study with 5% enhancer incorporated into W/O formulation
Protocol: (§1) Permeation study was performed in four fold determination with the test and the reference item at human skin. For the transport studies the dermatomized skin was cut with a punch of 24 mm diameter and the thickness of the skin was measured at five points for each sample. Subsequently the skin pieces were fastened on cylindrical glass Franz cells which are employed as diffusion chambers. The lower (acceptor) chamber has a volume of approximately 12 ml, while the volume of the upper (donor) chamber is variable. The skin was inserted with the dermal layer facing downwards so that the skin's corneous layer is uppermost.
PE2 (C12) which is solid at room temperature, was gently melted in a water bath (at 35 to 40° C.) and applied as liquid. After 30 min of incubation the liquid penetration enhancers were gently removed with cotton balls. In the case of PE2 which solidified on the skin, the solid film was removed with a pincer. Thereafter 50 μl of the formulations were applied at the surface of the skin. The acceptor medium was thermostated at 32° C. and continuously stirred at a rate of 400 rpm. The diffusion area of skin was approximately 1.8 cm^2. Permeation through the skin into the acceptor medium was monitored over a period of 24 hours. The acceptor medium was sampled at 4 different time points, after 1, 3, 6 and 24 hours, by withdrawing samples of 200 μl. After withdrawing a sample volume, the acceptor medium was refilled with pre-warmed KRB/KRB+2% BSA. The concentration of active ingredients in the acceptor chamber was corrected to take the dilution introduced by sampling into account. Taken samples were mixed with 210 μl or 500 μl of scintillation cocktail for at least 1 hour at 200 rpm and radioactivity measured by scintillation counting.
The described study was partly repeated in a similar experimental setup with three test substances to act as skin permeation enhancer when incorporated into the cosmetic formulation and not applied directly to the skin: • Dimethyl isosorbide (DMI) a well-known penetration enhancer—used in cosmetics • Penetration Enhancer 1 (PE1)—capryloyl alanine ethylester • Penetration Enhancer 2 (DGME)—prior art penetration enhancer Transcutol (Gattefossee), diethylene glycol mono ethyl ether
Formulation 1 (W/O formulation) served as a basic formulation and as a reference without any penetration enhancer. This time the skin was not pre-incubated with the selected penetration enhancers (DMI, PE1 and DGME), but 5% of the respective penetration enhancer was incorporated into formulation 1 and the resulting formulations were spiked once again with radiolabeled ^3H-caffeine or ^3H-Vitamin E acetate.

[2] = Penetration study with the enhancer applied directly to the skin (preincubation), Franz cells, radiolabeled markers from W/O formulation 1
Protocol: The aim of the present study was to determine the potency of three test substances (one being the closest prior art penetration enhancer) to act as skin permeation enhancer in cosmetic formulations: • Dimethyl isosorbide (DMI) a well-known penetration enhancer—used in cosmetics • Penetration Enhancer 1 (PE1)—capryloyl alanine ethylester • Penetration Enhancer 2 (PE2)—closest prior art molecule dodecyloyl alanine ethylester
The tests were performed by an independent test institute specialized in penetration testing. […] The skin was pre-incubated with the selected penetration enhancers (DMI, PE1 and PE2) and after incubation time of 30 min formulation was removed from the skin surface and formulation 1 spiked with radiolabeled ^3H-caffeine or ^3H-Vitamin E acetate was applied.
The impact of the three penetration enhancers on the skin absorption rate of caffeine and Vitamin E acetate (representative hydrophilic and lipophilic cosmetic actives, respectively) incorporated into a w/o formulation was investigated. Radiolabeled caffeine and Vitamin E acetate were used as markers. The in vitro skin permeation studies were performed with dermatomized human skin (approximately 500 μm in thickness) over a period of 24 h in triplicate. Samples from the acceptor compartment were taken at four sampling times (1, 3, 6 and 24 h) to screen the permeation enhancement effect.
The transdermal absorption of the test compounds ^3H-caffeine and ^3H-Vitamin E acetate was monitored by measuring the amount of radio labeled substances in the acceptor medium.
The test compounds were quantified by liquid scintillation counting.
In accordance to the SCCP Guidelines of the European Commission the excised human skin from surgery is an appropriate in vitro test system to simulate the permeation and penetration processes of a compound into and across human skin under in vivo conditions.
For the penetration study, the human skin (female abdomen skin) of one donor which was dermatomized to a thickness of 500±100 μm was used and tests were conducted in triplicate. Full-thickness skin was prepared from the skin biopsies and stored at −20° C. […] The skin was used immediately after thawing. Repeated freeze-thaw cycles were avoided.
Formulation 1 (without penetration enhancer) was spiked with radiolabeled ^3H-caffeine (specific activity: 60 Ci/mmol) and ^3H-Vitamin E acetate (specific activity: 50 Ci/mmol) and applied as control directly to the skin. The radio labeled samples were prepared as follows: Formulation 1 was spiked with either radiolabeled ^3H-caffeine or ^3H-Vitamin E acetate resulting in 2960000 cpm/50 μl or 1264557 cpm/50 μl, respectively. One of the three different penetration enhancers (DMI, PE1 and PE2) was applied to the skin prior to the application of the radioactively spiked W/O-formulation.
Krebs Ringer buffer (KRB, pH=7.4) was prepared according to an internal standard operation procedure. KRB was used as the acceptor medium for ^3H-caffeine. For ^3H-Vitamin E acetate, KRB supplemented with 2% bovine serum albumin (BSA) was used as the acceptor medium. Solutions of ^3H-caffeine and ^3H-Vitamin E acetate were used to validate the detection method and to assess linearity.
as §1

[3] = Hansen Solubility Parameters (HSP) distance to the stratum corneum; format: physicochemical
Text: Capryloyl alanine ethyl ester turned out to have a smaller Hansen Solubility Parameters (HSP) distance to the stratum corneum than well-known and established references like DMI and ethyldiethylenglycol which indicates a good potential as skin penetration enhancer. Hansen Solubility Parameters are a key indicator for good partitioning into the stratum corneum provided the molecule is liquid at RT and has a small enough molecular volume.

[4] = Penetration of the penetration enhancer itself through the skin; format: in vitro ADME
Text: Furthermore, capryloyl-alanine ethylester can be metabolized in the skin thereby contributing to an improved toxicological profile.

[5] = after 24 hours, skin pre-incubated 30 min with 20 μl enhancer, then W/O formulation 1 with 3H-caffeine, n = 3
[6] = after 24 hours, versus reference without enhancer, preincubation, n = 3
[7] = at 24 hours, skin pre-incubated 30 min with 20 μl enhancer, then W/O formulation 1 with 3H-Vitamin E acetate, n = 3
[8] = at 24 hours, versus reference without enhancer, preincubation, n = 3
[9] = preincubation, 24 h detection time
[10] = preincubation, caffeine in w/o formulation, 24 h

Structure (SMILES): CCOCCOCCO [DGME, diethylene glycol mono ethyl ether]
- Effect on transport of caffeine compared to the reference formulation without any enhancer [1]: slightly enhanced the transport
- Average cumulative transport of 3H-caffeine ([1]; human, 24 h, 5 %, pH 7.4): 278.404 cpm/cm2
- Enhancement Ratio for 3H-caffeine ([1]; human, 24 h, 5 %, pH 7.4): 1.12

Structure (SMILES): CO[C@H]1CO[C@H]2[C@@H]1OC[C@H]2OC [DMI, Dimethyl isosorbide]
- Average cumulative transport of 3H-caffeine [2, 5]: 203120 dpm/cm^2
- Enhancement Ratio for 3H-caffeine [2, 6]: 2.40
- Average cumulative transport of 3H-Vitamin E acetate [2, 7]: 2578 dpm/cm^2
- Enhancement Ratio for 3H-Vitamin E acetate [2, 8]: 1.01
- Effect on transport of Vitamin E acetate [2, 9]: only a slight penetration enhancing effect
- Caffeine transport compared to the control without any penetration enhancer [2, 10]: around twice
- Average cumulative transport of 3H-caffeine ([1]; at 24 hours, 5% enhancer incorporated into w/o formulation, n = 4): 212.435 cpm/cm2
- Enhancement Ratio for 3H-caffeine ([1]; at 24 hours, 5% enhancer incorporated, versus reference formulation 1 without enhancer, n = 4): 0.86
- Effect on transport of caffeine compared to the reference formulation without any enhancer ([1]; enhancer incorporated into W/O formulation): slightly decreased transport

Structure (SMILES): CCCCCCCC(=O)N[C@@H](C)C(=O)OCC [PE1, capryloyl alanine ethylester]
- Effect on transport of Vitamin E acetate [2]: only a slight penetration enhancing effect
- Average cumulative transport of 3H-Vitamin E acetate ([2]; female, human, 24 h, pH 7.4): 2712 dpm/cm^2
- Average cumulative transport of 3H-caffeine ([2]; female, human, 24 h, pH 7.4): 414024 dpm/cm^2
- Caffeine transport compared to the control without any penetration enhancer ([2]; female, human, 24 h, pH 7.4): approximately 5 times
- Enhancement Ratio for 3H-Vitamin E acetate ([2]; female, human, 24 h, pH 7.4): 1.06
- Enhancement Ratio for 3H-caffeine ([2]; female, human, 24 h, pH 7.4): 4.89
- Penetration of Vitamin E acetate with PE1 in comparison to PE2 ([2]; female, human, 24 h, pH 7.4): 1.5 fold
- HSP distance to the stratum corneum compared with DMI and ethyldiethylenglycol [3]: smaller
- Penetration of the enhancer itself through the skin compared with DMI [4]: lesser degree than DMI
- Effect on transport of caffeine compared to the reference formulation without any enhancer [1]: most effective permeation enhancer
- Average cumulative transport of 3H-caffeine ([1]; human, 24 h, 5 %, pH 7.4): 342.593 cpm/cm2
- Enhancement Ratio for 3H-caffeine ([1]; human, 24 h, 5 %, pH 7.4): 1.38

Structure (SMILES): CCCCCCCCCCCC(=O)N[C@@H](C)C(=O)OCC [PE2, dodecyloyl alanine ethylester]
- Average cumulative transport of 3H-caffeine [2, 5]: 262929 dpm/cm^2
- Enhancement Ratio for 3H-caffeine [2, 6]: 3.11
- Average cumulative transport of 3H-Vitamin E acetate [2, 7]: 1814 dpm/cm^2
- Enhancement Ratio for 3H-Vitamin E acetate [2, 8]: 0.70
- Effect on transport of Vitamin E acetate [2, 9]: reduced the transport
- Caffeine transport compared to the control without any penetration enhancer [2, 10]: approximately 3 times
